# Values quoted from earlier work in publication PMC4914392 (Bioorganic & medicinal chemistry, 2016).
# Settings: ref [17]
structure (smiles),measurement,value
"Nc1nccc2c1nnn2[C@@H]1O[C@H](CO)[C@@H](O)[C@H]1O [Compound 4, 8-aza-3-deazaadenosine]",Fluorescence emission λmax (H2O),430 nm
same,Stokes shift (H2O),140 nm
